Data on 20 molecules can be found in the supplement of paper PMC8837787.

The assay concerns Saccharomyces cerevisiae ABC16-Green Monster. The settings on record: 18 h; 30 °C; YPD. The method in brief:
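In 96-well plates, 200 µl per well of log-phase drug-sensitive S. cerevisiae ABC16-Green Monster in YPD received eight 1:2 compound dilutions (final 0.1–150 μM) in biological duplicate and was incubated for 18 h at 30 °C. OD600 was read at the start and at 18 h. IC50 was fitted to the background-subtracted readings by variable-slope nonlinear regression in GraphPad Prism.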

With `Clc1ccc(COC(Cn2ccnc2)c2ccc(Cl)cc2Cl)c(Cl)c1` (stereo not given) [Miconazole], the IC50 growth inhibition turned out to be 0.007 µM.

As for `CCOC(=O)C1=C(C)NC(C)=C(C(=O)OC)C1c1cccc(Cl)c1Cl` (stereo not given) [Felodipine], the IC50 growth inhibition is 20.7 µM.

The molecule `CNCCC(Oc1ccc(C(F)(F)F)cc1)c1ccccc1` (stereo not given) [Fluoxetin] came in with an IC50 growth inhibition of 59.5 µM. For the molecule `CCN(CC)C(=S)SSC(=S)N(CC)CC` [Disulfiram], the IC50 growth inhibition came to 52.9 µM. As for `CCOc1ccc(-c2nc(CNCCc3ccc(F)cc3)cs2)cc1`, the figure is 42.5 µM; as for `CCOc1ccc(Oc2ccc(S(=O)(=O)NC(C)c3ccncc3)cc2)cc1` (stereo not given), 51.1 µM. As for `COc1cc(Nc2ncc(F)c(Nc3ccc4c(n3)NC(=O)C(C)(C)O4)n2)cc(OC)c1OC` [Tamatinib besilate], the figure is more than 75 µM; as for `CC[C@@]1(O)C[C@H](O[C@H]2C[C@H](N(C)C)[C@H](O[C@H]3C[C@H](O)[C@H](O[C@H]4CCC(=O)[C@H](C)O4)[C@H](C)O3)[C@H](C)O2)c2c(cc3c(c2O)C(=O)c2c(O)cccc2C3=O)[C@H]1C(=O)OC` [Aclarubicin], 4.79 µM. As for `c1ccc(-c2cc(N3CCCCC3)c3ccccc3n2)nc1`, the IC50 growth inhibition was 42.9 µM. Then `Cc1cc(C(=O)ONC(=N)c2ccccc2)nn1C(C)(C)C`, with 63.5 µM. As for `Cc1ccc2c(Br)cc(Br)c(OC(=O)c3ccccc3)c2n1` [Broxaldine], the figure is 2.24 µM. Then `NCCN(C(=O)c1ccc(Cl)cc1Cl)c1ccc(OCc2ccc(Cl)cc2)cc1`, with 10.5 µM; and `CNC1CCC(c2ccc(Cl)c(Cl)c2)c2ccccc21.Cl` (stereo not given) [Sertraline], with 13.4 µM. `O=C([C@@H](c1ccc(Cl)cc1)c1cccnc1)N1CCN(c2ccc(C(F)(F)F)cc2)CC1` had an IC50 growth inhibition of 50 µM.

`CN(CC1COc2ccccc2O1)C(=O)Nc1nc2ccccc2s1` (stereo not given): the IC50 growth inhibition amounted to 48 µM.

In the case of `CCOc1ccc(C(=O)CN(C#N)C(=O)c2ccccc2)cc1`, the IC50 growth inhibition worked out at 25 µM.

Turning to `O=P(O)(O)C(O)(Cn1ccnc1)P(=O)(O)O` [Zoledronate], the IC50 growth inhibition is more than 75 µM. Turning to `CC1CCC2C(C)C(O)OC3OC4(C)CCC1C32OO4` (stereo not given) [Dihydroartemisinin], the IC50 growth inhibition is more than 75 µM. Then `C[C@H]1CC[C@H](n2c3cnccc3c3cnc(Nc4ccc5c(n4)CCN(C(=O)CO)C5)nc32)CC1` [AMG 925], with more than 75 µM; and `COC(=O)Nc1nc2ccc(C(=O)c3ccccc3)cc2[nH]1` [Mebendazole], with 5.42 µM.
